Laboratory results published in US20100267561A1, “HERBICIDAL PYRIDAZINONE DERIVATIVES” (priority 2007, published 2010).

Columns and labels:
Format in all cases: in vivo
[1] = tested on: Virginia (V.) dayflower (Commelina virginica); experiment: Test E pre-/postemergence plant response; conditions: scale 0 to 100
Method in brief: (§1)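 Scores are visual estimates of control on a 0 to 100 scale, made against untreated plants 14 to 21 days after treatment in the greenhouse. Application was preemergence to sown seeds or postemergence to 2–18 cm plants (1- to 4-leaf stage), using a surfactant-containing non-phytotoxic solvent formulation.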

[2] = tested on: common sowthistle (Sonchus oleraceous); experiment: Test E pre-/postemergence plant response; conditions: scale 0 to 100
Method in brief: as §1

[3] = tested on: barnyardgrass (Echinochloa crus-galli); experiment: Test D flooded paddy plant response; conditions: Flood, scale 0 to 100 (0 no effect, 100 complete control), 21 days
Description: (§2) Three plastic pots (ca. 16-cm diameter) for each application rate were partially filled with sterilized Tama silt loam soil comprising a 35:50:15 ratio of sand, silt and clay and 2.6% organic matter. Separate plantings for each of the three pots were as follows. Seeds from the U.S. of ducksalad (Heteranthera limosa), umbrella sedge (Cyperus difformis) and purple redstem (Ammannia coccinea), were planted into one 16-cm pot for each rate. Seeds from the U.S. of rice flatsedge (Cyperus iria), bearded (Brdd.) sprangletop (Leptochloa fascicularis), one stand of 9 or 10 water-seeded rice seedlings (Oryza sativa cv. ‘Japonica—M202’), and one stand of 6 transplanted rice seedlings (Oryza sativa cv. ‘Japonica—M202’) were planted into one 16-cm pot for each rate. Seeds from the U.S. of barnyardgrass (Echinochloa crus-galli), late watergrass (Echinochloa oryzicola), early watergrass (Echinochloa oryzoides) and junglerice (Echinochloa colona) were planted into one 16-cm pot for each rate. Plantings were sequential so that crop and weed species were at the 2.0 to 2.5-leaf stage at time of treatment.
(§3) Potted plants were grown in a greenhouse with day/night temperature settings of 30/27° C., and supplemental balanced lighting was provided to maintain a 16-hour photoperiod. Test pots were maintained in the greenhouse until test completion.
(§4) At time of treatment, test pots were flooded to 3 cm above the soil surface, treated by application of test compounds directly to the paddy water, and then maintained at that water depth for the duration of the test. Effects of treatments on rice and weeds were visually evaluated by comparison to untreated controls after 21 days. Plant response ratings, summarized in Table D, are based on a scale of 0 to 100 where 0 is no effect and 100 is complete control. A dash (-) response means no test result.

[4] = tested on: bearded (Brdd.) sprangletop (Leptochloa fascicularis); experiment: Test D flooded paddy plant response; conditions: Flood, scale 0 to 100 (0 no effect, 100 complete control), 21 days
Description: as §2, §3, §4

[5] = tested on: ducksalad (Heteranthera limosa); experiment: Test D flooded paddy plant response; conditions: Flood, scale 0 to 100 (0 no effect, 100 complete control), 21 days
Description: as §2, §3, §4

[6] = tested on: early watergrass (Echinochloa oryzoides); experiment: Test D flooded paddy plant response; conditions: Flood, scale 0 to 100 (0 no effect, 100 complete control), 21 days
Description: as §2, §3, §4

[7] = tested on: junglerice (Echinochloa colona); experiment: Test D flooded paddy plant response; conditions: Flood, scale 0 to 100 (0 no effect, 100 complete control), 21 days
Description: as §2, §3, §4

[8] = tested on: late watergrass (Echinochloa oryzicola); experiment: Test D flooded paddy plant response; conditions: Flood, scale 0 to 100 (0 no effect, 100 complete control), 21 days
Description: as §2, §3, §4

[9] = tested on: purple redstem (Ammannia coccinea); experiment: Test D flooded paddy plant response; conditions: Flood, scale 0 to 100 (0 no effect, 100 complete control), 21 days
Description: as §2, §3, §4

[10] = tested on: rice flatsedge (Cyperus iria); experiment: Test D flooded paddy plant response; conditions: Flood, scale 0 to 100 (0 no effect, 100 complete control), 21 days
Description: as §2, §3, §4

[11] = tested on: transplanted rice seedlings (Oryza sativa cv. ‘Japonica—M202’); experiment: Test D flooded paddy plant response; conditions: Flood, scale 0 to 100 (0 no effect, 100 complete control), 21 days
Description: as §2, §3, §4

[12] = tested on: water-seeded rice seedlings (Oryza sativa cv. ‘Japonica—M202’); experiment: Test D flooded paddy plant response; conditions: Flood, scale 0 to 100 (0 no effect, 100 complete control), 21 days
Description: as §2, §3, §4

[13] = tested on: common chickweed (Stellaria media); experiment: Test E pre-/postemergence plant response; conditions: scale 0 to 100
Method in brief: as §1

Cc1cc(-c2ccc(Cl)cc2)nn1-c1c(OC(=O)Oc2ccccc2)cnn(C)c1=O [Compound 54]
0: Plant response rating, Dayflower, V. ([1]; 8 g ai/ha, Postemergence) | Plant response rating, Dayflower, V. ([1]; Postemergence, 16 g ai/ha) | Plant response rating, Dayflower, V. ([1]; Postemergence, 31 g ai/ha) | Plant response rating, Dayflower, V. ([1]; Postemergence, 62 g ai/ha) | Plant response rating, Sowthistle ([2]; 8 g ai/ha, Postemergence) | Plant response rating, Sowthistle ([2]; Postemergence, 16 g ai/ha) | Plant response rating, Sowthistle ([2]; Postemergence, 31 g ai/ha) | Plant response rating, Sowthistle ([2]; Postemergence, 62 g ai/ha)

CCc1cc(-c2ccc(Cl)cc2)nn1-c1c(O)cnn(C)c1=O [Compound 21]
70: Plant response rating, Junglerice ([7]; 32 g ai/ha) | Plant response rating, Flatsedge, Rice ([10]; 64 g ai/ha) | Plant response rating, Flatsedge, Rice ([10]; 125 g ai/ha) | Plant response rating, Flatsedge, Rice ([10]; 250 g ai/ha)
75: Plant response rating, Rice, Water Seeded ([12]; 250 g ai/ha)
80: Plant response rating, Sprangletop, Brdd. ([4]; 64 g ai/ha)
20: Plant response rating, Rice, Water Seeded ([12]; 32 g ai/ha)
30: Plant response rating, Sprangletop, Brdd. ([4]; 16 g ai/ha) | Plant response rating, Sprangletop, Brdd. ([4]; 32 g ai/ha) | Plant response rating, Watergrass, Late ([8]; 32 g ai/ha)
35: Plant response rating, Rice, Water Seeded ([12]; 64 g ai/ha)
100: Plant response rating, Barnyardgrass ([3]; 64 g ai/ha) | Plant response rating, Barnyardgrass ([3]; 125 g ai/ha) | Plant response rating, Barnyardgrass ([3]; 250 g ai/ha) | Plant response rating, Sprangletop, Brdd. ([4]; 125 g ai/ha) | Plant response rating, Sprangletop, Brdd. ([4]; 250 g ai/ha) | Plant response rating, Watergrass, Early ([6]; 125 g ai/ha) | Plant response rating, Watergrass, Early ([6]; 250 g ai/ha) | Plant response rating, Junglerice ([7]; 64 g ai/ha) | Plant response rating, Junglerice ([7]; 125 g ai/ha) | Plant response rating, Junglerice ([7]; 250 g ai/ha) | Plant response rating, Watergrass, Late ([8]; 125 g ai/ha) | Plant response rating, Watergrass, Late ([8]; 250 g ai/ha)
60: Plant response rating, Barnyardgrass ([3]; 32 g ai/ha) | Plant response rating, Watergrass, Late ([8]; 64 g ai/ha)
0: Plant response rating, Barnyardgrass ([3]; 16 g ai/ha) | Plant response rating, Ducksalad ([5]; 16 g ai/ha) | Plant response rating, Ducksalad ([5]; 32 g ai/ha) | Plant response rating, Ducksalad ([5]; 64 g ai/ha) | Plant response rating, Ducksalad ([5]; 125 g ai/ha) | Plant response rating, Ducksalad ([5]; 250 g ai/ha) | Plant response rating, Watergrass, Early ([6]; 16 g ai/ha) | Plant response rating, Junglerice ([7]; 16 g ai/ha) | Plant response rating, Watergrass, Late ([8]; 16 g ai/ha) | Plant response rating, Redstem, Purple ([9]; 16 g ai/ha) | Plant response rating, Redstem, Purple ([9]; 32 g ai/ha) | Plant response rating, Redstem, Purple ([9]; 64 g ai/ha) | Plant response rating, Redstem, Purple ([9]; 125 g ai/ha) | Plant response rating, Redstem, Purple ([9]; 250 g ai/ha) | Plant response rating, Flatsedge, Rice ([10]; 16 g ai/ha) | Plant response rating, Flatsedge, Rice ([10]; 32 g ai/ha) | Plant response rating, Rice, Transplanted ([11]; 16 g ai/ha) | Plant response rating, Rice, Transplanted ([11]; 32 g ai/ha) | Plant response rating, Rice, Transplanted ([11]; 64 g ai/ha) | Plant response rating, Rice, Water Seeded ([12]; 16 g ai/ha) | Plant response rating, Chickweed ([13]; Postemergence, 31 g ai/ha)
40: Plant response rating, Watergrass, Early ([6]; 32 g ai/ha)
50: Plant response rating, Rice, Transplanted ([11]; 125 g ai/ha)
65: Plant response rating, Watergrass, Early ([6]; 64 g ai/ha) | Plant response rating, Rice, Transplanted ([11]; 250 g ai/ha) | Plant response rating, Rice, Water Seeded ([12]; 125 g ai/ha)

CCCc1cc(-c2ccc(Cl)cc2)nn1-c1c(O)cnn(C)c1=O [Compound 43]
35: Plant response rating, Rice, Transplanted ([11]; 250 g ai/ha) | Plant response rating, Rice, Water Seeded ([12]; 250 g ai/ha)
100: Plant response rating, Barnyardgrass ([3]; 125 g ai/ha) | Plant response rating, Barnyardgrass ([3]; 250 g ai/ha) | Plant response rating, Watergrass, Early ([6]; 250 g ai/ha) | Plant response rating, Junglerice ([7]; 125 g ai/ha) | Plant response rating, Junglerice ([7]; 250 g ai/ha) | Plant response rating, Watergrass, Late ([8]; 250 g ai/ha)
0: Plant response rating, Barnyardgrass ([3]; 16 g ai/ha) | Plant response rating, Sprangletop, Brdd. ([4]; 16 g ai/ha) | Plant response rating, Sprangletop, Brdd. ([4]; 32 g ai/ha) | Plant response rating, Sprangletop, Brdd. ([4]; 64 g ai/ha) | Plant response rating, Sprangletop, Brdd. ([4]; 125 g ai/ha) | Plant response rating, Ducksalad ([5]; 16 g ai/ha) | Plant response rating, Ducksalad ([5]; 32 g ai/ha) | Plant response rating, Ducksalad ([5]; 64 g ai/ha) | Plant response rating, Ducksalad ([5]; 125 g ai/ha) | Plant response rating, Ducksalad ([5]; 250 g ai/ha) | Plant response rating, Watergrass, Early ([6]; 16 g ai/ha) | Plant response rating, Watergrass, Early ([6]; 32 g ai/ha) | Plant response rating, Junglerice ([7]; 16 g ai/ha) | Plant response rating, Junglerice ([7]; 32 g ai/ha) | Plant response rating, Watergrass, Late ([8]; 16 g ai/ha) | Plant response rating, Watergrass, Late ([8]; 32 g ai/ha) | Plant response rating, Redstem, Purple ([9]; 16 g ai/ha) | Plant response rating, Redstem, Purple ([9]; 32 g ai/ha) | Plant response rating, Redstem, Purple ([9]; 64 g ai/ha) | Plant response rating, Redstem, Purple ([9]; 125 g ai/ha) | Plant response rating, Redstem, Purple ([9]; 250 g ai/ha) | Plant response rating, Flatsedge, Rice ([10]; 16 g ai/ha) | Plant response rating, Flatsedge, Rice ([10]; 32 g ai/ha) | Plant response rating, Flatsedge, Rice ([10]; 64 g ai/ha) | Plant response rating, Flatsedge, Rice ([10]; 125 g ai/ha) | Plant response rating, Flatsedge, Rice ([10]; 250 g ai/ha) | Plant response rating, Rice, Transplanted ([11]; 16 g ai/ha) | Plant response rating, Rice, Transplanted ([11]; 32 g ai/ha) | Plant response rating, Rice, Transplanted ([11]; 64 g ai/ha) | Plant response rating, Rice, Water Seeded ([12]; 16 g ai/ha) | Plant response rating, Rice, Water Seeded ([12]; 32 g ai/ha) | Plant response rating, Rice, Water Seeded ([12]; 64 g ai/ha) | Plant response rating, Dayflower, V. ([1]; 16 g ai/ha, Preemergence) | Plant response rating, Dayflower, V. ([1]; 31 g ai/ha, Preemergence) | Plant response rating, Dayflower, V. ([1]; 62 g ai/ha, Preemergence) | Plant response rating, Dayflower, V. ([1]; Postemergence, 8 g ai/ha) | Plant response rating, Dayflower, V. ([1]; Postemergence, 16 g ai/ha) | Plant response rating, Dayflower, V. ([1]; Postemergence, 31 g ai/ha) | Plant response rating, Dayflower, V. ([1]; Postemergence, 62 g ai/ha) | Plant response rating, Chickweed ([13]; 16 g ai/ha, Preemergence) | Plant response rating, Chickweed ([13]; 31 g ai/ha, Preemergence) | Plant response rating, Chickweed ([13]; 62 g ai/ha, Preemergence) | Plant response rating, Sowthistle ([2]; 16 g ai/ha, Preemergence) | Plant response rating, Sowthistle ([2]; 31 g ai/ha, Preemergence) | Plant response rating, Sowthistle ([2]; 62 g ai/ha, Preemergence) | Plant response rating, Sowthistle ([2]; Postemergence, 8 g ai/ha) | Plant response rating, Sowthistle ([2]; Postemergence, 16 g ai/ha) | Plant response rating, Sowthistle ([2]; Postemergence, 31 g ai/ha) | Plant response rating, Sowthistle ([2]; Postemergence, 62 g ai/ha)
20: Plant response rating, Barnyardgrass ([3]; 32 g ai/ha) | Plant response rating, Sprangletop, Brdd. ([4]; 250 g ai/ha)
30: Plant response rating, Watergrass, Late ([8]; 64 g ai/ha) | Plant response rating, Rice, Water Seeded ([12]; 125 g ai/ha)
60: Plant response rating, Barnyardgrass ([3]; 64 g ai/ha) | Plant response rating, Watergrass, Early ([6]; 64 g ai/ha) | Plant response rating, Junglerice ([7]; 64 g ai/ha)
10: Plant response rating, Rice, Transplanted ([11]; 125 g ai/ha)
70: Plant response rating, Watergrass, Early ([6]; 125 g ai/ha)
65: Plant response rating, Watergrass, Late ([8]; 125 g ai/ha)
